One may read the IC50 as the point on the concentration scale where inhibition reaches its midpoint.

One assay concerns PKMYT1 (CDK1 pThr14) in FUOV1 cells. Put plainly: PKMYT1 cell-based activity assay, CDK1 pThr14 AlphaLISA in FUOV1 cells. The settings on record: 2 h, 2 h compound incubation, read-out: FUOV-1 CDK1 pThr14 IC50. The gist of the method:
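FUOV1 cells were treated with PKMYT1 inhibitor for 2 h at 37 °C, then lysed. CDK1 pThr14 was measured by AlphaLISA, pairing an anti-pThr14 antibody with an anti-total CDK1 antibody (5 nM each). Signal read at 680/615 nm and used to derive IC50.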
A general note: Bead proximity is the source of the signal in Alpha formats.
As for `Cc1ccc2[nH]ncc2c1-c1nc(-c2ccc(F)cc2Nc2cnccc2C#N)nc(C(N)=O)c1N` [Compound 699], the concentration for half-maximal inhibition (IC50) worked out at 48 nM.
Still for that read-out and setting: for `Cc1cc(C)nc(Nc2cc(F)ccc2-c2nc(C(N)=O)c(N)c(-c3c(C)ccc4[nH]ncc34)n2)n1` [Compound 567] the value was 389 nM; for `Cc1ccncc1Nc1cc(F)ccc1-c1nc(C(N)=O)c(N)c(-c2c(C)ccc3[nH]ncc23)n1` [Compound 664], 41 nM; for `Cc1ccc2[nH]ncc2c1-c1nc(-c2cccnc2NC2(C)CCOCC2)nc(C(N)=O)c1N` [Compound 544], 6 nM.
The same measure, in the same setting: next, `Cc1ccc2[nH]ncc2c1-c1nc(-c2cc(F)c(F)cc2NC2CCS(=O)(=O)CC2)nc(C(N)=O)c1N` [Compound 529]: 251 nM; `Cc1cc(Nc2cc(F)ccc2-c2nc(C(N)=O)c(N)c(-c3c(C)ccc4[nH]ncc34)n2)cc(C#N)n1` [Compound 586]: 75 nM; `COc1ccc(-c2nc(C(N)=O)c(N)c(-c3c(C)ccc4[nH]ncc34)n2)c(Nc2ncccc2C)n1` [Compound 709]: 18 nM.
The same measure, in the same setting: for `Cc1ccc2[nH]ncc2c1-c1nc(-c2cc(F)cnc2N[C@H]2C[C@@](C)(O)C2)nc(C(N)=O)c1N` [Compound 733, 5-amino-2-(5-fluoro-2-(((1s,3s)-3-hydroxy-3-methylcyclobutyl)amino)pyridin-3-yl)-6-(5-methyl-1H-indazol-4-yl)pyrimidine-4-carboxamide] the value was 48 nM; for `Cc1ccc2[nH]ncc2c1-c1nc(-c2cc(Cl)ccc2Nc2ncccn2)nc(C(N)=O)c1N` [Compound 637], 241 nM.
Consider `Cc1ccc2[nH]ncc2c1-c1nc(-c2ccc(F)cc2Nc2ccncc2)nc(C(N)=O)c1N` [Compound 533], for which the IC50 is 3 nM.
Still for that read-out and setting: for `Cc1ccc2[nH]ncc2c1-c1nc(-c2cccnc2Nc2nc(C#N)ccc2Cl)nc(C(N)=O)c1N` [Compound 743] the value was 3 nM.
Same read-out and setting: next, `Cc1ccc2[nH]ncc2c1-c1nc(-c2cccnc2NC2CC(F)(F)C2)nc(C(N)=O)c1N` [Compound 675]: 53 nM; `Cc1ccc2[nH]ncc2c1-c1nc(-c2cccnc2NC2CCCC2)nc(C(N)=O)c1N` [Compound 681]: 11 nM.
The same measure, in the same setting: next, `Cc1ccc2[nH]ncc2c1-c1nc(-c2cc(F)cnc2NCC2(O)CCC2)nc(C(N)=O)c1N` [Compound 691]: 228 nM; `Cc1ccc2[nH]ncc2c1-c1cc2c(oc3ccc(O[C@H]4CCOC4)nc32)c(C(N)=O)c1N` [Compound 574]: 1330 nM; `Cc1ccc2[nH]ncc2c1-c1nc(-c2cc(F)ccc2NS(=O)(=O)C2CCC2)nc(C(N)=O)c1N` [Compound 571]: 283 nM.
Take `Cc1ccc2[nH]ncc2c1-c1nc(-c2ccc(F)cc2Nc2cccc(C#N)c2)nc(C(N)=O)c1N` [Compound 580, 5-amino-2-(2-((3-cyanophenyl)amino)-4-fluorophenyl)-6-(5-methyl-1H-indazol-4-yl)pyrimidine-4-carboxamide]: the IC50 was 44 nM.
`Cc1cc(Nc2cc(F)ccc2-c2nc(C(N)=O)c(N)c(-c3c(C)ccc4[nH]ncc34)n2)nc(C)n1` [Compound 578]: the IC50 is 150 nM.
Same read-out and setting: for `Cc1ccc2[nH]ncc2c1-c1nc(-c2ccc(F)cc2Nc2nccnc2C)nc(C(N)=O)c1N` [Compound 640] the value was 2 nM.
On to `Cc1ccc2[nH]ncc2c1-c1nc(-c2cccnc2N[C@H]2CCOC[C@@H]2F)nc(C(N)=O)c1N` [Compound 648], for which the IC50 amounted to 51 nM.
As for `Cc1ccc2[nH]ncc2c1-c1nc(-c2ccc(F)cc2Nc2ncnc(C)c2C#N)nc(C(N)=O)c1N` [Compound 639], the IC50 was determined as 121 nM.
Same read-out and setting: next, `Cc1ccc2[nH]ncc2c1-c1nc(-c2cc(F)ccc2Nc2ccnn2C)nc(C(N)=O)c1N` [Compound 522]: 101 nM; `Cc1ccc2[nH]ncc2c1-c1nc(-c2ccc(F)cc2Nc2cncc(C#N)c2)nc(C(N)=O)c1N` [Compound 673]: 1710 nM.
On the same count and under the same terms, next, `Cc1ccc2[nH]ncc2c1-c1nc(-c2ccc(C#N)cc2NC2CCOCC2)nc(C(N)=O)c1N` [Compound 782]: 25 nM; `Cc1ccc2[nH]ncc2c1-c1nc(-c2cc(F)cnc2N[C@H]2C[C@@H](O)C2)nc(C(N)=O)c1N` [Compound 704]: 17 nM.
With `Cc1ccc2[nH]ncc2c1-c1nc(-c2cccnc2Nc2ncccc2C(F)(F)F)nc(C(N)=O)c1N` [Compound 767], the IC50 came out at 11 nM.
Turning to `Cc1ccc2[nH]ncc2c1-c1nc(-c2cc(F)cnc2N[C@@H]2CCOC2)nc(C(N)=O)c1N` [Compound 685], the IC50 worked out at 12 nM.
Same read-out and setting: for `Cc1ccc2[nH]ncc2c1-c1nc(-c2cccnc2Nc2ccccc2Cl)nc(C(N)=O)c1N` [Compound 629] the value was 160 nM; for `Cc1ccc2[nH]ncc2c1-c1cc2c(oc3ccc(N[C@H]4CCOC4)nc32)c(C(N)=O)c1N` [Compound 668], 94 nM.
The same measure, in the same setting: for `Cc1ccc2[nH]ncc2c1-c1nc(-c2cccnc2Nc2ccncc2)nc(C(N)=O)c1N` [Compound 562] the value was 24 nM; for `Cc1ccc2[nH]ncc2c1-c1nc(-c2ccc(F)cc2Nc2ccncc2C#N)nc(C(N)=O)c1N` [Compound 590], 8 nM; for `COc1cncc(Nc2cc(F)ccc2-c2nc(C(N)=O)c(N)c(-c3c(C)ccc4[nH]ncc34)n2)n1` [Compound 696], 69 nM.
The same measure, in the same setting: for `Cc1ccc2[nH]ncc2c1-c1nc(-c2cc(F)cnc2N[C@H]2CC[C@H](C(C)(C)O)CC2)nc(C(N)=O)c1N` [Compound 757] the value was 199 nM.
Consider `Cc1ccc2[nH]ncc2c1-c1nc(-c2cc(F)cnc2NC2COC2)nc(C(N)=O)c1N` [Compound 712], for which the 50% inhibitory concentration (IC50) came to 66 nM.
The same measure, in the same setting: next, `Cc1ccc2[nH]ncc2c1-c1nc(-c2cccnc2NC[C@H]2CCOC2)nc(C(N)=O)c1N` [Compound 594]: 36 nM; `COCCNc1ccc2oc3c(C(N)=O)c(N)c(-c4c(C)ccc5[nH]ncc45)cc3c2n1` [Compound 558, 7-amino-2-((2-methoxyethyl)amino)-8-(5-methyl-1H-indazol-4-yl)benzofuro[3,2-b]pyridine-6-carboxamide]: 95 nM.
The same measure, in the same setting: next, `Cc1ccc2[nH]ncc2c1-c1nc(-c2cc(F)ccc2Nc2ncc(C#N)s2)nc(C(N)=O)c1N` [Compound 506]: 236 nM.
On the same count and under the same terms, next, `Cc1ccc2[nH]ncc2c1-c1nc(-c2ccncc2NC(=O)C(C)(C)C)cc(C(N)=O)c1N` [Compound 507, 5-amino-6-(5-methyl-1H-indazol-4-yl)-3′-pivalamido-[2,4′-bipyridine]-4-carboxamide]: 166 nM; `Cc1ccc2[nH]ncc2c1-c1nc(-c2cccnc2NCC2(C)COC2)nc(C(N)=O)c1N` [Compound 661]: 383 nM; `Cc1ccc2[nH]ncc2c1-c1nc(-c2cc(F)c(C#N)cc2Nc2ncccn2)nc(C(N)=O)c1N` [Compound 761]: 75 nM.
Regarding `Cc1ccc2[nH]ncc2c1-c1nc(-c2ccc(C#N)cc2Nc2cccnn2)nc(C(N)=O)c1N` [Compound 765], the IC50 is 23 nM.

Staying with this assay, now noted: 2 h, 2 hours with compound, read-out: FUOV-1 CDK1 pThr14 IC50.
Consider `COc1nccnc1Nc1nc(Cl)ccc1-c1nc(C(N)=O)c(N)c(-c2c(C)ccc3[nH]ncc23)n1` [Compound 826], for which the concentration for half-maximal inhibition (IC50) is 12 nM.
For the compound `Cc1ccc2[nH]ncc2c1-c1nc(-c2cn(C)nc2Nc2ncccn2)nc(C(N)=O)c1N` [Compound 926], the IC50 came out at 659 nM.
Still for that read-out and setting: next, `Cc1ccc2[nH]ncc2c1-c1nc(-c2c[nH]nc2NC2CCOCC2)nc(C(N)=O)c1N` [Compound 927]: 343 nM.
Consider `Cc1ccc2[nH]ncc2c1-c1nc(-c2cc(F)cnc2NCc2cnn(C)c2)nc(C(N)=O)c1N` [Compound 895], for which the concentration for half-maximal inhibition (IC50) came out at 876 nM.
Same read-out and setting: for `Cc1ccc2[nH]ncc2c1-c1nc(-c2cc(F)cnc2NC2CCN(C)CC2)nc(C(N)=O)c1N` [Compound 838] the value was 55 nM; for `Cc1ccc2[nH]ncc2c1-c1nc(-c2cc(F)cnc2N[C@H]2CC[C@@H](O)CC2)nc(C(N)=O)c1N` [Compound 828], 30 nM.
The same measure, in the same setting: next, `NC(=O)c1nc(-c2cccnc2NC2CC2)nc(-c2c(F)ccc3[nH]ncc23)c1N` [Compound 933]: 65 nM.
In the case of `Cc1ccc2[nH]ncc2c1-c1nc(-c2ccc(F)nc2Nc2nccnc2Cl)nc(C(N)=O)c1N` [Compound 924], the IC50 amounted to 15 nM.
The same measure, in the same setting: next, `Cc1ccc2[nH]ncc2c1-c1nc(-c2ccc(F)cc2N[C@H]2C[C@H](O)C2)nc(C(N)=O)c1N` [Compound 906]: 51 nM.
On the same count and under the same terms, next, `Cc1cc(F)c2[nH]ncc2c1-c1nc(-c2ccc(F)nc2Nc2ncccc2F)nc(C(N)=O)c1N` [Compound 864]: 9 nM.
Same read-out and setting: next, `Cc1c(F)cc2[nH]ncc2c1-c1nc(-c2ccc(F)nc2Nc2nc(C(F)F)ccc2F)nc(C(N)=O)c1N` [Compound 858]: 7 nM; `Cc1ccc2[nH]ncc2c1-c1nc(-c2cc(Cl)ncc2NC2CC(F)(F)C2)nc(C(N)=O)c1N` [Compound 840]: 54 nM.
Turning to `NC(=O)c1nc(-c2ccc(F)nc2Nc2ncccc2F)nc(-c2c(F)ccc3[nH]ncc23)c1N` [Compound 971], the IC50 came to 21 nM.
The same measure, in the same setting: next, `Cc1ccc(-c2nc(C(N)=O)c(N)c(-c3c(Cl)ccc4[nH]ncc34)n2)c(Nc2ncccn2)n1` [Compound 950]: 42 nM; `Cc1ccc2[nH]ncc2c1-c1nc(-c2ccc(C#N)nc2NC2CC(F)(F)C2)nc(C(N)=O)c1N` [Compound 809]: 272 nM; `Cc1ccc2[nH]ncc2c1-c1nc(-c2ccncc2Nc2ncccc2F)nc(C(N)=O)c1N` [Compound 938]: 2 nM.
Still for that read-out and setting: next, `N#Cc1ccc(-c2nc(C(N)=O)c(N)c(-c3c(Cl)ccc4[nH]ncc34)n2)c(Nc2ncccn2)c1` [Compound 958]: 32 nM; `COc1c(C(N)=O)nc(-c2cccnc2Nc2nc(F)ccc2F)nc1-c1c(C)ccc2[nH]ncc12` [Compound 963, 2-(2-((3,6-difluoropyridin-2-yl)amino)pyridin-3-yl)-5-methoxy-6-(5-methyl-1H-indazol-4-yl)pyrimidine-4-carboxamide]: above 10000 nM.

The values are drawn from patent US20250304537A1 (Repare Therapeutics Inc., priority 2022, published 2025).
